The record followed here is US20250154193A1, “STEROID COMPOUND, AND PREPARATION METHOD THEREFOR AND APPLICATION THEREOF” (CHOLESGEN (SHANGHAI) CO., LTD., priority 2022, published 2025).

Bounds are passed on as bounds.

The assay deals with SREBP pathway. Kind of assay: SREBP luciferase reporter gene system (SRE-luciferase assay) in Huh-7/SRE-Luc cells. Type of assay: cell-based. Particulars: Homo sapiens, sterol-deficient medium, compound treatment 16 hours, luciferase/GFP ratio. The procedure: Huh-7/SRE-Luc, a human hepatocellular carcinoma cell line, was grown in a culture medium containing DMEM, 10% fetal bovine serum, 100 units/mL penicillin, 100 µg/mL streptomycin, and 200 μg/mL G418.
The Huh-7/SRE-Luc cell line is a human hepatocellular carcinoma cell line Huh-7 stably expressing LDLR promoter-luciferase and green fluorescent protein (GFP). The LDLR promoter region contains a sterol regulatory element (SRE) that can effectively and sensitively respond to the regulation of the transcription factor SREBP. The GFP signal serves as an internal reference to indicate changes in cell number. Therefore, this cell line can be used to screen for active small molecules that regulate the SREBP signaling pathway. […] Cells were incubated in a sterol-deficient medium (5% lipoprotein-deficient serum, 2 μM Lovastatin, 10 μM mevalonate) and treated with corresponding concentrations of compounds for 16 hours. After compound treatment, the cells were lysed with lysis buffer (E397A, Promega), followed by the addition of luciferase substrate (E1500, Promega). The SRE-driven luciferase activity was measured using a BioTek Synergy HTX microplate reader (including but not limited to this type of instrument). The fluorescence intensity of enhanced green fluorescent protein (EGFP) was also measured using the BioTek microplate reader (including but not limited to this type of instrument) and used as an internal reference. The ratio of SRE-driven luciferase activity to GFP fluorescence intensity was used as an indicator of SREBP pathway activity. The test data of each test compound was analyzed using Prism software to obtain the IC50 parameter of the compound.
The inhibitory effect of the compounds of the present disclosure on the SREBP pathway was tested by the method of bioassay example 2. The concentration gradient of each compound was designed as 0.01, 0.03, 0.1, 0.3, 1.0, 3.0, and […], with DMSO as a vehicle control.
(Reporter assays use an easily measured gene product as a stand-in for the process of interest.)
One may read the IC50 as the midpoint of a concentration-inhibition curve. `C[C@H](CCCC1(O)CC1)[C@H]1CC[C@H]2[C@@H]3CC[C@H]4C[C@@H](O)CC[C@]4(C)[C@H]3CC[C@]12C` [compound 253, 24-(hydroxycyclopropyl)-5α-cholan-3β-ol]: the IC50 stood at 0.187 µM.

As to `C[C@H](CCCC(C)(C)O)[C@H]1CC[C@H]2[C@@H]3CC[C@H]4C(C)(O)[C@@H](O)CC[C@]4(C)[C@@]3(C)CC[C@]12C` (stereo partly drawn) [compound 254, 4-methyl-5α-cholest-3β,4,25-triol], the IC50 turned out to be 6.19 µM.

`C[C@H](CCCC(C)(C)O)[C@H]1CC[C@H]2[C@@H]3CC(=O)[C@H]4C[C@@H](O)CC[C@]4(C)[C@H]3CC[C@]12C` [compound 255, 3P,25-dihydroxy-5α-cholest-6-one]: the half-inhibitory concentration (IC50) was 0.452 µM.

With `C[C@H](CCCC(C)(C)O)[C@H]1CC[C@H]2[C@@H]3CCC4(F)C[C@@H](O)CC[C@]4(C)[C@H]3CC[C@]12C` (stereo partly drawn) [compound 266, 5-fluorocholest-3β,25-diol], the half-inhibitory concentration (IC50) amounted to 0.176 µM.

In the case of `C[C@H](CCN(C)C(=O)c1ccccc1F)[C@H]1CC[C@H]2[C@@H]3CC[C@H]4C[C@@H](O)CC[C@]4(C)[C@H]3CC[C@]12C` [compound 268, 2-fluoro-N-[(3R)-3-[(1R,3aS,3bR,5aS,7S,9aS,9bS,11aR)-7-hydroxy-9a,11a-dimethylhexadecahydro-1H-cyclopenta[1,2-a]phenanthren-1-yl]butyl]-N-methylbenzamide], the IC50 is 0.825 µM.

As for `C[C@H](CCCC(O)c1ccccc1F)[C@H]1CC[C@H]2[C@@H]3C(=O)C[C@H]4[C@@H](O)[C@@H](O)CC[C@]4(C)[C@H]3CC[C@]12C` (stereo partly drawn) [compound 271, 24-[(2-fluorophenyl)(hydroxy)methyl]-4β-hydroxy-3β-hydroxy-5α-cholan-7-one], the half-inhibitory concentration (IC50) was 0.139 µM.

On to `C[C@H](CCCC(C)(C)O)[C@H]1CC[C@H]2[C@@H]3C[C@H](O)[C@H]4[C@@H](O)[C@@H](O)CC[C@]4(C)[C@H]3CC[C@]12C` [compound 272, 5α-cholest-3β,4P,6α,25-tetraol], for which the IC50 was determined as 20.1 µM.

Turning to `C[C@H](CCCC(C)(C)O)[C@H]1CC[C@H]2[C@@H]3CCC4(O)C(=O)[C@@H](O)CC[C@]4(C)[C@H]3CC[C@]12C` (some centres unmarked) [compound 276, 3P,5,25-trihydroxycholest-4-one], the concentration for half-maximal inhibition (IC50) came to 0.522 µM.

As to `C[C@H](CCCC(C)(O)c1ccccc1F)[C@H]1CC[C@H]2[C@@H]3CC[C@H]4[C@@H](O)[C@@H](O)CC[C@]4(C)[C@H]3CC[C@]12C` (stereo partly drawn) [compound 278, 24-[1-(2-fluorophenyl)-1-hydroxyethyl]-5α-cholan-3β,4β-diol], the IC50 came out at 0.106 µM.

Regarding `C[C@H](CCCC(O)c1cc(F)cc(F)c1)[C@H]1CC[C@H]2[C@@H]3CC[C@H]4[C@@H](O)[C@@H](O)CC[C@]4(C)[C@H]3CC[C@]12C` (stereo partly drawn) [compound 282, 24-[(3,5-difluorophenyl)(hydroxy)methyl]-5α-cholan-3β,4β-diol], the IC50 turned out to be 0.117 µM.

As to `C[C@H](CCCC(C)(C)O)[C@H]1CC[C@H]2[C@@H]3/C(=N/O)C[C@H]4C[C@@H](O)CC[C@]4(C)[C@H]3CC[C@]12C` [compound 285, [(1R,3aS,3bR,4E,5aS,7S,9aS,9bS,11aR)-7-hydroxy-1-[(2R)-6-hydroxy-6-methylheptan-2-yl]-9a,11a-dimethylhexadecahydro-1H-cyclopenta[1,2-a]phenanthren-4-ylidene]hydroxylamine], the half-inhibitory concentration (IC50) was determined as 0.793 µM.

Turning to `C[C@H](CCCC(O)c1ccccc1C(F)(F)F)[C@H]1CC[C@H]2[C@@H]3CC[C@H]4[C@@H](O)[C@@H](O)CC[C@]4(C)[C@H]3CC[C@]12C` (stereo partly drawn) [compound 286, 24-{hydroxy[2-(trifluoromethyl)phenyl]methyl}-5α-cholan-30,40-diol], the IC50 worked out at 0.575 µM.

As to `C[C@H](CCCC1(O)CC1)[C@H]1CC[C@H]2[C@H]3[C@H](CC[C@]12C)[C@@]1(C)CC[C@H](O)C[C@@H]1CC3(F)F` [compound 288, (1R,3aS,5aR,7S,9aS,11aR)-4,4-difluoro-1-[(2R)-5-(hydroxycyclopropyl)pentan-2-yl]-9a,11a-dimethylhexadecahydro-1H-cyclopenta[1,2-a]phenanthrene-7-ol], the IC50 amounted to 0.308 µM.

On to `C[C@H](CCCC(O)c1c(F)cccc1F)[C@H]1CC[C@H]2[C@@H]3C(=O)C[C@H]4[C@@H](O)[C@@H](O)CC[C@]4(C)[C@H]3CC[C@]12C` (stereo partly drawn) [compound 289, 24-[(2,6-difluorophenyl)(hydroxy)methyl]-4β-hydroxy-3β-hydroxy-5α-cholan-7-one], for which the half-maximal inhibitory concentration (IC50) was determined as 0.117 µM.

Turning to `CC(O)C1CC[C@@]2(C)[C@@H](CC[C@@H]3[C@@H]2CC[C@]2(C)[C@@H]([C@H](C)CCCC(C)(C)O)CC[C@@H]32)C1` (stereo partly drawn) [compound 290, 3-(1-hydroxyethyl)-5α-cholest-25-ol], the IC50 stood at 0.699 µM.

Turning to `C[C@H](CCCC(C)(C)O)[C@H]1CC[C@H]2[C@@H]3CC[C@H]4C(F)(F)[C@@H](O)CC[C@]4(C)[C@H]3CC[C@]12C` [compound 291, (1R,3aS,3bS,5aR,7S,9aR,9bS,11aR)-6,6-difluoro-1-[(2R)-6-hydroxy-6-methylheptan-2-yl]-9a,11a-dimethylhexadecahydro-1H-cyclopenta[1,2-a]phenanthrene-7-ol], the half-maximal inhibitory concentration (IC50) was found to be 0.065 µM.

`C[C@H](CCCC(C)(C)O)[C@H]1CC[C@H]2[C@@H]3CC[C@H]4C[C@@H](OC(=O)CO)CC[C@]4(C)[C@H]3CC[C@]12C` [compound 292, (1R,3aS,3bR,5aS,7S,9aS,9bS,11aR)-1-[(2R)-6-hydroxy-6-methylheptan-2-yl]-9a,11a-dimethylhexadecahydro-1H-cyclopenta[1,2-i]phenanthren-7-yl hydroxyacetate]: the IC50 was found to be 0.171 µM.

Turning to `C[C@H](CCCC(C)(C)O)[C@H]1CC[C@H]2[C@@H]3CC[C@H]4C[C@@H](OC(=O)CC(=O)O)CC[C@]4(C)[C@H]3CC[C@]12C` [compound 293, 3-{[(1R,3aS,3bR,5aS,7S,9aS,9bS,11aR)-1-[(2R)-6-hydroxy-6-methylheptan-2-yl]-9a,11a-dimethylhexadecahydro-1H-cyclopenta[1,2-a]phenanthren-7-yl]oxy}-3-oxopropanoic acid], the IC50 amounted to 0.136 µM.

In the case of `C[C@H](CCCC(C)(C)O)[C@H]1CC[C@H]2[C@@H]3CC[C@H]4C[C@@H](OC(=O)CCC(=O)O)CC[C@]4(C)[C@H]3CC[C@]12C` [compound 294, 4-{[(1R,3aS,3bR,5aS,7S,9aS,9bS,11aR)-1-[(2R)-6-hydroxy-6-methylheptan-2-yl]-9a,11a-dimethylhexadecahydro-1H-cyclopenta[1,2-a]phenanthren-7-yl]oxy}-4-oxobutanoic acid], the IC50 is 0.139 µM.

For the molecule `C[C@H](CCCC(C)(C)O)[C@H]1CC[C@H]2[C@@H]3C[C@@H](N)[C@H]4[C@@H](O)[C@@H](O)CC[C@]4(C)[C@H]3CC[C@]12C` [compound 295, 6-amino-5α-cholest-3β,4p,25-triol], the concentration for half-maximal inhibition (IC50) is more than 10 µM.

For `C[C@H](CCCC(O)c1c(F)cccc1F)[C@H]1CC[C@H]2[C@@H]3C(N)C[C@H]4[C@@H](O)[C@@H](O)CC[C@]4(C)[C@H]3CC[C@]12C` (stereo partly drawn) [compound 299, 7-amino-24-[(2,6-difluorophenyl)(hydroxy)methyl]-5α-cholan-3P,4β-diol], the IC50 came to 4.83 µM.

With `C[C@H](CCCC(O)c1c(F)cccc1F)[C@H]1CC[C@H]2[C@H]3[C@H](CC[C@]12C)[C@@]1(C)CC[C@H](O)C(=O)[C@@H]1CC3(F)F` (stereo partly drawn) [compound 301, (1R,3aS,3bS,5aR,7S,9aR,9bS,11aR)-1-[(2R)-6-(2,6-difluorophenyl)-6-hydroxyhexan-2-yl]-4,4-difluoro-7-hydroxy-9a,11a-dimethylhexadecahydro-1H-cyclopenta[1,2-α]phenanthren-6-one], the half-inhibitory concentration (IC50) is 0.04 µM.

Take `C[C@H](CCCC(C)(C)O)[C@H]1CC[C@H]2[C@@H]3CC[C@H]4[C@@H](N)[C@@H](O)CC[C@]4(C)[C@H]3CC[C@]12C` [compound 303, 4-amino-5α-cholest-3β,25-diol]: the IC50 is 7.08 µM.

For the molecule `CC(O)CCC[C@@H](C)[C@H]1CC[C@H]2[C@@H]3CC[C@H]4[C@@H](O)[C@@H](O)CC[C@]4(C)[C@H]3CC[C@]12C` (stereo partly drawn) [compound 304, 24-(1-hydroxyethyl)-5α-cholan-3β,4β-diol], the IC50 turned out to be 0.173 µM.

On to `C[C@H](CCCC(O)c1ccccc1)[C@H]1CC[C@H]2[C@@H]3CC[C@H]4[C@@H](O)[C@@H](O)CC[C@]4(C)[C@H]3CC[C@]12C` (stereo partly drawn) [compound 305, 24-(hydroxyphenylmethyl)-5α-cholan-3β,4β-diol], for which the half-inhibitory concentration (IC50) was 0.119 µM.

For the molecule `C[C@H](CCCC(C)(C)O)[C@H]1CC[C@H]2[C@@H]3CC[C@H]4CC(C)(O)CC[C@]4(C)[C@H]3CC[C@]12C` (some centres unmarked) [compound 307, 3-methylcholest-3,25-diol], the concentration for half-maximal inhibition (IC50) worked out at 0.588 µM.
